Data taken from patent publication US5656206A, “Substituted naphthopyrans” (Transitions Optical, Inc., priority 1995, dated 1997).

Assay: Photochromic response rates on an optical bench (polymer test squares)
Assay type: physicochemical
Conditions: for ΔOD@ SATURATION: UV exposure continued for 20 minutes, test square; for ΔOD@ SATURATION / ΔOD/MIN SENSITIVITY: 75° F. (23.9° C.); for ΔOD/MIN SENSITIVITY: measured over first five (5) seconds of UV exposure, expressed per minute, BPA 2EO DMA / poly(ethyleneglycol) 600 dimethacrylate test square; for Bleach (T1/2): time for absorbance of activated form to reach one half the highest absorbance, room temperature (75° F., 23.9° C.), after removal of activating light; for LAMBDA MAX (VISIBLE): wavelength of maximum absorption of the activated (colored) form, in a diethylene glycol bis(allyl carbonate) composition
Description: Testing was done with the photochromic naphthopyrans of the Examples incorporated into polymeric samples by the following method. The quantity of naphthopyran calculated to yield a 1.5 times 10^-3 molal solution was added to a flask containing 50 grams of a monomer blend of 4 parts ethoxylated bisphenol A dimethacrylate (BPA 2EO DMA), 1 part poly(ethyleneglycol) 600 dimethacrylate, and 0.033 weight percent 2,2'-azobis(2-methyl propionitrile) (AIBN). The naphthopyran was dissolved into the monomer blend by stirring and gentle heating, if necessary. After a clear solution was obtained, it was poured into a flat sheet mold having the interior dimensions of 2.2 mm×6 inches (15.24 cm)×6 inches (15.24 cm). The mold was sealed and placed in a horizontal air flow, programmable oven set to increase the temperature from 40° C. to 95° C. over a 5 hour interval, hold the temperature at 95° C. for 3 hours and then lower it to 60° C. for at least 2 hours before the end of the curing cycle. After the mold was opened, the polymer sheet was cut using a diamond blade saw into 2 inch (5.1 centimeters) test squares.
The photochromic test squares prepared in Part A were tested for photochromic response rates on an optical bench. […] The bench was fitted with a 150 watt Xenon arc lamp, a remote controlled shutter, a copper sulfate bath acting as a heat sink for the arc lamp, a Schott WG-320 nm cut-off filter which removes short wavelength radiation; neutral density filter(s) and a sample holder in which the square to be tested was inserted. A collimated beam of light from a tungsten lamp was passed through the square at a small angle normal to the square. After passing through the square, the light from the tungsten lamp was directed through a photopic filter attached to a detector. The photopic filter passes wavelengths such that the detector mimics the response of the human eye. The output signals from the detector(s) were processed by a radiometer.
Change in optical density (ΔOD) was determined by inserting a test square in the bleached state into the sample holder, adjusting the transmittance scale to 100%, opening the shutter from the Xenon lamp to provide ultraviolet radiation to change the test square from the bleached state to an activated (i.e., darkened) state, measuring the transmittance in the activated state, and calculating the change in optical density according to the formula Δ OD=log(100/%Ta) where %Ta is the percent transmittance in the activated state and the logarithm is to the base 10.
The Δ OD/Min, which represents the sensitivity of the photochromic compound's response to UV light, was measured over the first five (5) seconds of UV exposure, then expressed on a per minute basis. The saturation optical density (OD) was taken under identical conditions as the Δ OD/Min, except UV exposure was continued for 20 minutes for the examples in Table 1. The lambda max reported in Table 1 is the wavelength in the visible spectrum at which the maximum absorption of the activated (colored) form of the photochromic compound in a diethylene glycol bis(allyl carbonate) composition occurs.

SMILES	ΔOD@ SATURATION	ΔOD/MIN SENSITIVITY	Bleach (T1/2)	LAMBDA MAX (VISIBLE)	bleach rate, i.e., fade rate (in words) (conclusion from Table 1)
COc1ccc(C2(c3ccc(OC)cc3)C=Cc3c(COC(C)=O)c(-c4ccccc4)c4ccccc4c3O2)cc1 [Example 3, 2,2-bis(4-methoxyphenyl)-5-acetoxymethyl-6-phenyl-2H-naphtho[1,2-b]pyran]	0.25	0.33 ΔOD/MIN	1.82 min	508	
COc1ccc(C2(c3ccc(OC)cc3)C=Cc3c(CO)c(-c4ccccc4)c4ccccc4c3O2)cc1 [Example 2, 2,2-bis(4-methoxyphenyl)-5-hydroxymethyl-6-phenyl-2H-naphtho[1,2-b]pyran]	0.26	0.32 ΔOD/MIN	2.48 min	506	
COc1ccc(C2(c3ccc4c(c3)CCO4)C=Cc3c(C(=O)N4CCCCC4)c(C)c4ccc(OC)cc4c3O2)cc1 (centres unmarked) [Example 4, 2-(4-methoxyphenyl)-2-(2,3-dihydrobenzofuran-5-yl)-5-piperidinocarbonyl-6-methyl-9-methoxy-2H-naphtho[1,2-b]pyran]	0.65	0.34 ΔOD/MIN	> 13.3 min	535	fades much slower
COc1ccc(C2(c3ccc(OC)cc3)C=Cc3c(CO)c(C)c4ccc(OC)cc4c3O2)cc1 [Example 1, 2,2-bis(4-methoxyphenyl)-5-hydroxymethyl-6-methyl-9-methoxy-2H-naphtho[1,2-b]pyran]	0.42	0.38 ΔOD/MIN	5.05 min	520	
